Measurements taken from paper PMC10655324, “Combinative effects of akarkara root-derived metabolites on anti-inflammatory and anti-alzheimer key enzymes: integrating bioassay-guided fractionation, GC-MS analysis, and in silico studies” (BMC Complementary Medicine and Therapies, 2023).
Read-outs that look alike come from different tables or passages of the source.

Assays:
[1] = tested on: iNOS; assay: iNOS inhibitory activity in LPS-induced RAW264.7 macrophages (nitrite, Griess reagent); assay type: cell-based; conditions: Mus musculus
Procedure: The RAW264.7 macrophage cells were grown on DMEM media, supplemented with 10% FBS and 1% P/S (100 U/ml and […], respectively). The RAW264.7 macrophage cells were kept in DMEM at 37 °C and 5% CO2. For the anti-inflammatory assays, cells were used at 60% confluency after a 24-hour acclimatization period.
Stock solutions of the extract, fractions (1 mg/mL) and the isolated compounds (1000 μM) were made by dissolving in 0.1% DMSO in PBS (pH 7.2). For experiments, they were further diluted with DMEM to obtain the desired concentration. In a 96-well plate, the RAW264.7 macrophages were seeded (4 × 10^3 cells per well) overnight, then washed with DMEM. The macrophages were pre-treated with various concentrations of the extract, fractions (125- 0.98 µg/mL), isolated compounds, and standard drugs (125 - 0.06 µM) for 30 min, and further incubated with LPS (1 μg/mL) for 24 h. For the negative control, cells were treated with 0.1% DMSO (negative control LPS-). After incubation, the monolayer of […] cells were washed with ice-cold PBS (pH 7.2), trypsinized, and treated with lysis buffer (1% Triton X-100, 50 mMTris–HCl, pH 7.4, 0.2% sodium dodecyl sulfate, 0.2% sodium deoxycholate, 1 mM phenylmethylsulfonyl fluoride, 1 mM sodium ethylenediaminetetraacetate, 5 μg/mL of leupeptin, 5 μg/mL of aprotinin) then centrifuged (5000 rpm for 10 min) to collect the supernatant, The cell lysates were stored at − 80 °C utilized for anti-inflammatory assays.
The inhibitory activity of Inducible nitric oxide synthase (iNOS) was determined in terms of nitric oxide (NO) concentration by measuring the quantity of nitrite in the cell culture supernatant using Griess reagent. Equal volumes of each cell lysate (100 µL) and Griess reagent (1% sulfanilamide, 0.1% naphthylethylenediamine dihydrochloride, and 5% phosphoric acid) were mixed and incubated at room temperature for 10 min. Using a microplate reader, absorbances at 540 nm were measured. Parthenolide served as a positive control. The % inhibition was calculated using the following formula:
iNOS % Inhibition= [(OD control−OD sample)/ OD control x 100].

[2] = DPPH radical scavenging assay; conditions: for IC50: isolated compounds and Trolox
Procedure: The extract and fractions were prepared in dimethyl sulfoxide (DMSO) at a concentration of 1mg/mL, while the isolated compounds were tested in 500 µM.
The 2,2-diphenyl-1-picrylhydrazyl (DPPH) assay was performed as described previously. One hundred μL of DPPH reagent (freshly prepared as 0.1% in methanol) was mixed with equal volume of each sample. Then, the solutions were left in the dark at room temperature for […]. Trolox (6-hydroxy-2,5,7,8-tetramethylchroman-2-carboxylic acid) was used as a positive control. The absorbances were measured at 517 nm. Data are represented as means ± SD according to the following equation:
Percentage inhibition = [(Average absorbance of blank - average absorbance of the test)/(Average absorbance of blank)] x 100
The IC50 of each tested sample was determined.

[3] = molecular target: AChE (Homo sapiens, UniProt P22303); assay: biochemical
AChE, sequence (P22303 32-614): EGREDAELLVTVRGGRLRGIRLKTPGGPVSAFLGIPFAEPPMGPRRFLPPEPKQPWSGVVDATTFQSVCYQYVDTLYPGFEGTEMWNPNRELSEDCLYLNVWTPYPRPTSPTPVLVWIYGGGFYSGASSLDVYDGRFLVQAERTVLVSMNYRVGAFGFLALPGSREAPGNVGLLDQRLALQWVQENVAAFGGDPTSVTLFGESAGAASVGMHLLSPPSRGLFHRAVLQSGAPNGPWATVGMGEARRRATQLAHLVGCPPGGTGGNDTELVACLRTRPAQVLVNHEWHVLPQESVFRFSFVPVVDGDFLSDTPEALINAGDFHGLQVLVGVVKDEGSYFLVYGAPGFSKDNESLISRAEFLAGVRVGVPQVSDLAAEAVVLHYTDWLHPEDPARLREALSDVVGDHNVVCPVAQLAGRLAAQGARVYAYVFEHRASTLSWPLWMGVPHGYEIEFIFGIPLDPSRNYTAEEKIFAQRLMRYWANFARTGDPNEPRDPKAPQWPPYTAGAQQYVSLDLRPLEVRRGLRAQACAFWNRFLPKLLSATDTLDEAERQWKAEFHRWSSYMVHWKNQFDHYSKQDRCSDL
Procedure: (§1) The cholinesterase inhibitory activity was determined colorimetrically as previously published method with slight modifications. […] In a 96-well plate, 170 μl Tris-HCl buffer (200 mM, pH 7.5) was mixed with 20 μL of each tested sample solution and 20 μL of 0.1 U/ml enzyme solution (Ache or BChE) containing 0.1% bovine serum albumin in the same buffer. Dithio-bis-(2-nitrobenzoic acid) DTNB, an indicator, was added after 10 min of incubation at 25 °C (0.69 mM in tris buffer). […] In the control assays without the inhibitors, the tested samples were replaced by DMSO (20 μl) and their absorbance values were recorded (Reading B). Regarding the blank assays, the buffer (20 μL) was added instead of the enzyme.
(§2) The % inhibition was calculated using the following formula:
(§3) % of inhibition = [1− (corrected A/corrected B)] * 100

[4] = molecular target: BChE (Homo sapiens, UniProt P06276); assay: biochemical
BChE, sequence (P06276 29-602, species assumed): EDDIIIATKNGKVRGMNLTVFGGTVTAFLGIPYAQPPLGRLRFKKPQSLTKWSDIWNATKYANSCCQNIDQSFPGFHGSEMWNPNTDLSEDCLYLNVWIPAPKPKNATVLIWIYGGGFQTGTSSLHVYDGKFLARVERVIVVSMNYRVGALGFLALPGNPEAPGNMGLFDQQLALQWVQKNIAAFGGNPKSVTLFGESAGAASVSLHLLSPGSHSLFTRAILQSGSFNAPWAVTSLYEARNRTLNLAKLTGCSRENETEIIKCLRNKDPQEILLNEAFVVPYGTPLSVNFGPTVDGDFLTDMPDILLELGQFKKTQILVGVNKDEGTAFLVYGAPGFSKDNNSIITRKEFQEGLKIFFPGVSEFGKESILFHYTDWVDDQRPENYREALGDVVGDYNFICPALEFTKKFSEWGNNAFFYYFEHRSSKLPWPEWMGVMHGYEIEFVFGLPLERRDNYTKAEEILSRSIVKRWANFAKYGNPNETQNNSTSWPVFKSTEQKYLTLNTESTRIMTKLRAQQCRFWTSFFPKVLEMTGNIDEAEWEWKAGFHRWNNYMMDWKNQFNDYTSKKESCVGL
Procedure: as §1, §2, §3

[5] = LPS-induced RAW264.7 macrophages, isolated compounds and Parthenolide, read-out: iNOS IC50

Compound	IC50 ([1]; RAW264.7, read-out: iNOS IC50)	IC50 [2]	IC50 [3]	IC50 [4]	IC50 [1, 5]	DPPH IC50 ([2]; extract, fractions and Trolox standard)
CCCCCCCC/C=C\CCCCCCCC(N)=O [A1, 9-cis-octadecenamide]	10.3 ± 0.12 µM	21.67 ± 0.21 µM	8.37 ± 0.1 µM	9.29 ± 0.29 µM	–	–
CC[C@H](/C=C/[C@@H](C)[C@H]1CC[C@H]2[C@@H]3CC=C4C[C@@H](O)CC[C@]4(C)[C@H]3CC[C@]12C)C(C)C [A2, stigmasterol]	6.72 ± 0.08 µM	16.4 ± 0.23 µM	–	–	–	–
CCCCC/C=C/C=C/C(=O)NCCc1ccccc1 [A3, 2E, 4E-deca-2,4-dienoic acid 2-phenylethyl amide]	–	17.73 ± 0.16 µM	7.7 ± 0.26 µM	8.65 ± 0.25 µM	9.15 ± 0.12 µM	–
CCCCC/C=C/C=C/C(=O)NCC(C)C [A4, deca-2E,4E-dienoic acid isobutylamide]	11.4 ± 0.36 µM	22.6 ± 0.41 µM	–	–	–	–
C=C1C(=O)O[C@H]2[C@H]1CC/C(C)=C/CC[C@@]1(C)O[C@@H]21 [Parthenolide, reference compound]	–	–	–	–	4.1 ± 0.08 µM	–
Cc1c(C)c2c(c(C)c1O)CCC(C)(C(=O)O)O2 (stereo not drawn) [Trolox, 6-hydroxy-2,5,7,8-tetramethylchroman-2-carboxylic acid, reference compound]	–	5.63 µM	–	–	–	1.41 ± 0.08 µg/mL
